This is an account of results in paper PMC6256987, “Investigating the Activity Spectrum for Ring-Substituted 8-Hydroxyquinolines” (Molecules, 2010).

The structures appear in SMILES notation. ≈ marks a conversion by molar mass, not a printed value. Where two headings read alike, the source gives them in different places.

The test system of one data set is M. kansasii CIT11/06. The data set is described as follows: In vitro antimycobacterial evaluation (alamarBlue, 96 well plate). The note with it: Mycobacterium kansasii, CIT11/06, 120 h, Middlebrook broth, 37 °C 5 days, read-out: MIC/IC90 M. kansasii. In kind it is cell-based. In general terms: Resazurin is reduced to fluorescent resorufin, in cell work by metabolically active cells.

In a further data set the test system is M. absessus CIT21/06. The data set is described as above. In kind it is cell-based. The conditions noted are these: Middlebrook broth, 37 °C overnight, read-out: MIC/IC90 M. absessus.
In the next data set the test system is M. smegmatis MC2155. The description is as above. In kind it is cell-based. The conditions noted are these: Mycolicibacterium smegmatis, Middlebrook broth, 37 °C overnight, read-out: MIC/IC90 M. smegmatis.
Data set [1] concerns Mycobacterium avium complex CIT19/06. The data set is described as above. In kind it is cell-based. The conditions noted are these: 120 h, Middlebrook broth, 37 °C 5 days, read-out: MIC/IC90 M. avium complex.
Data set [2] in a line: Lipophilicity determination by RP-HPLC (capacity factor k / log k). In kind it is physicochemical. The conditions noted are these: C18 column, isocratic MeOH 55.0% / H2O 45.0%. The text has this:
A Waters Alliance 2695 XE HPLC separation module and Waters Photodiode Array Detector 2996 (Waters Corp., Milford, MA, USA) were used. A Symmetry® C18 5 μm, 4.6 × 250 mm, Part No. WAT054275, (Waters Corp., Milford, MA, USA) chromatographic column was used. The HPLC separation process was monitored by Millennium32® Chromatography Manager Software, Waters 2004 (Waters Corp., Milford, MA, USA). A mixture of MeOH p.a. (55.0%) and H2O-HPLC– Mili-Q Grade (45.0%) was used as a mobile phase. The total flow of the column was 0.9 mL/min, injection 30 μL, column temperature 30 °C and sample temperature 10 °C. The detection wavelength 210 nm was chosen. The KI methanolic solution was used for the dead time (tD) determination. Retention times (tR) were measured in minutes.
The capacity factors k were calculated using the Millennium32® Chromatography Manager Software according to formula k = (tR - tD)/tD, where tR is the retention time of the solute, whereas tD denotes the dead time obtained via an unretained analyte. Log k, calculated from the capacity factor k, is used as the lipophilicity index converted to log P scale.

The next data set deals with Absidia corymbifera 272. The experiment in a line: In vitro antifungal broth microdilution test. Type of data set: cell-based. The note with it: Lichtheimia corymbifera, 272, 35 °C, RPMI 1640 pH 7.0, CLSI M38-A (IC50 value). In general terms: Dilution methods test growth across graded concentrations, often in twofold steps.
Another data set relates to Candida krusei ATCC 6258. The experiment in a line: In vitro antifungal broth microdilution test. Type of data set: cell-based. The conditions noted are these: Pichia kudriavzevii, ATCC6258, 35 °C, RPMI 1640 pH 7.0, CLSI M27-A2 (IC80 value).
Data set [3] deals with Trichophyton mentagrophytes 445. The data set is described as follows: In vitro antifungal broth microdilution test. In kind it is cell-based.
Data set [4] deals with Trichosporon beigelii 1188. The experiment in a line: In vitro antifungal broth microdilution test. Type of data set: cell-based. The note with it: Trichosporon beigelii, 1188, 35 °C, RPMI 1640 pH 7.0, CLSI M27-A2 (IC80 value), read-out: MIC TB. As for the experimental part:
Fluconazole (FLU) was used as the standard of a clinically used antimycotic drug. The procedure was performed with twofold dilution of the compounds in RPMI 1640 (Sevapharma a.s., Prague, Czech Republic) buffered to pH 7.0 with 0.165 mol of 3-morpholino-propane-1-sulfonic acid (MOPS, Sigma, Germany). The final concentrations of the compounds ranged from 500 to 0.975 μmol/L. Drug–free controls were included. The MIC determination was performed according to the CLSI (formerly NCCLS) reference protocol M27-A2 for yeasts (IC80 value) and M38-A for moulds (IC50 value). […] The values of MICs were determined after 24 and 48 h of static incubation at 35 °C. For T. mentagrophytes, the final MICs were determined after 72 and 120 h of incubation.

Data set [5] deals with photosynthetic electron transport (PET) in spinach chloroplasts. The data set is described as follows: Inhibition of photosynthetic electron transport (PET) in spinach chloroplasts, DCPIP photoreduction. In kind it is biochemical, Spinacia oleracea L. The conditions noted are these: DCPIP as electron acceptor, phosphate buffer pH 7.2, read-out: PET reduction IC50. As for the experimental part:
Chloroplasts were prepared from spinach (Spinacia oleracea L.) according to Masarovicova and Kralova. The inhibition of photosynthetic electron transport (PET) in spinach chloroplasts was determined spectrophotometrically (Genesys 6, Thermo Scientific, USA) using an artificial electron acceptor 2,6-dichlorophenol-indophenol (DCIPP) according to Kralova et al. and the rate of photosynthetic electron transport was monitored as a photoreduction of DCPIP. The measurements were carried out in phosphate buffer (0.02 mol/L, pH 7.2) containing sucrose (0.4 mol/L), MgCl2 (0.005 mol/L) and NaCl (0.015 mol/L). The chlorophyll content was 30 mg/L in these experiments and the samples were irradiated (~100 W/m^2) from 10 cm distance with a halogen lamp (250 W) using a 4 cm water filter to prevent warming of the samples (suspension temperature 22 °C). The studied compounds were dissolved in DMSO due to their limited water solubility. […] The inhibitory efficiency of the studied compounds was expressed by IC50 values, i.e., by molar concentration of the compounds causing 50% decrease in the oxygen evolution rate relative to the untreated control.

Data set [6] concerns Aspergillus fumigatus 231. The experiment in a line: In vitro antifungal broth microdilution test. Type of data set: cell-based. The note with it: Aspergillus fumigatus, 231, 35 °C, RPMI 1640 pH 7.0, CLSI M38-A (IC50 value).
For data set [7], the system named is Candida albicans ATCC 44859. The data set is described as follows: In vitro antifungal broth microdilution test. Type of data set: cell-based. The conditions noted are these: Candida albicans, ATCC44859, 35 °C, RPMI 1640 pH 7.0, CLSI M27-A2 (IC80 value).
The test system of another data set is Candida glabrata 20/I. The experiment in a line: In vitro antifungal broth microdilution test. In kind it is cell-based. The conditions noted are these: Nakaseomyces glabratus, 20/I, 35 °C, RPMI 1640 pH 7.0, CLSI M27-A2 (IC80 value).
The next data set relates to Candida tropicalis 156. The experiment in a line: In vitro antifungal broth microdilution test. In kind it is cell-based. The note with it: Candida tropicalis, 156, 35 °C, RPMI 1640 pH 7.0, CLSI M27-A2 (IC80 value).
[8] abbreviates: Trichophyton mentagrophytes, 445, 120 h, pH 7.
[9] abbreviates: Trichophyton mentagrophytes, 445, 72h, RPMI 1640 pH 7.0, CLSI M38-A (IC50 value).

In the case of `NC(=O)c1cnccn1` [PZA, pyrazinamide, reference compound], the MIC (with M. kansasii CIT11/06; with M. absessus CIT21/06; with M. smegmatis MC2155; in data set [1]) was more than 100 µg/mL throughout.

With `CC(=O)Oc1ccc(O)c(C=Cc2ccc3c(Cl)cc(Cl)c(O)c3n2)c1` [Compound 13, 5,7-Dichloro-2-[2-(2-hydroxy-5-acetoxyphenyl)vinyl]quinolin-8-ol], the log k in data set [2] came to 1.5864. Further, the MIC in the data set with M. kansasii CIT11/06 was more than 300 µg/mL; in the data set with M. absessus CIT21/06, more than 300 µg/mL; with M. smegmatis MC2155 it was 100 µg/mL (≈ 256 µM); in data set [1], more than 300 µg/mL.

`NNC(=O)c1ccncc1` [INH, isoniazid, reference compound]: the MIC is less than 10 µg/mL in the data set with M. kansasii CIT11/06, more than 100 µg/mL in the data set with M. absessus CIT21/06, 39 µg/mL (≈ 284 µM) with M. smegmatis MC2155 and less than 10 µg/mL in data set [1].

`O=[N+]([O-])c1ccc(O)c2ncccc12` [Compound 1, 5-Nitroquinolin-8-ol] returned a log k in data set [2] of 0.5695. In addition, the MIC (in the data set on Absidia corymbifera 272 (24h); in the data set on Absidia corymbifera 272 (48h); in the data set with Candida krusei ATCC 6258 (24h); in the data set with Candida krusei ATCC 6258 (48h); in data set [3] (setting [8]); in data set [3] (setting [9])) was more than 500 µM in each case. For the same molecule, the MIC in [4] (24h), in data set [4] (48h), in data set [6] (24h), in data set [6] (48h), in data set [7] (24h) and in data set [7] (48h) was more than 500 µM throughout. The MIC with Candida glabrata 20/I (24h), against Candida glabrata 20/I (48h), against Candida tropicalis 156 (24h) and against Candida tropicalis 156 (48h) was more than 500 µM in each case. Further, in data set [5], the IC50 stood at 78 µM.

`O=S(=O)(NCCc1ccccc1)c1ccc(O)c2ncccc12` [Compound 6, 8-Hydroxyquinoline-5-sulfonic acid (2-phenylethyl)amide]: the log k in [2] is listed as 0.3349. The MIC (in the data set with Absidia corymbifera 272 (24h); against Absidia corymbifera 272 (48h); with Candida krusei ATCC 6258 (24h); with Candida krusei ATCC 6258 (48h); in data set [3] (setting [8]); in [3] (setting [9])) was 125 µM (≈ 41 µg/mL) each time. Moreover, the MIC in data set [4] (24h), in data set [4] (48h), in data set [6] (24h), in data set [6] (48h), in [7] (24h) and in [7] (48h) was 125 µM (≈ 41 µg/mL) in each case. In addition, the MIC against Candida glabrata 20/I (24h), with Candida glabrata 20/I (48h), against Candida tropicalis 156 (24h) and in the data set on Candida tropicalis 156 (48h) was 125 µM (≈ 41 µg/mL) in each case. For the same molecule, the 50% inhibitory concentration (IC50) in data set [5] was determined as 304 µM.

`Oc1ccc(C=Cc2ccc3c(Cl)cc(Cl)c(O)c3n2)c(O)c1` [Compound 11, 5,7-Dichloro-2-[2-(2,4-dihydroxyphenyl)vinyl]quinolin-8-ol]: the log k in [2] amounted to 1.5858. In addition, the MIC in the data set on M. kansasii CIT11/06 is more than 100 µg/mL; with M. absessus CIT21/06, more than 100 µg/mL; in the data set on M. smegmatis MC2155, 100 µg/mL (≈ 287 µM); in data set [1] it was more than 100 µg/mL.

In [2], `Oc1ccc(C=Cc2ccc3c(Cl)cc(Cl)c(O)c3n2)cc1` [Compound 10, 5,7-Dichloro-2-[2-(4-hydroxyphenyl)vinyl]quinolin-8-ol] had a log k of 1.5866. Also, the MIC against Absidia corymbifera 272 (24h) was 31.2 µM (≈ 10.4 µg/mL); with Absidia corymbifera 272 (48h), 62.5 µM (≈ 20.8 µg/mL); in the data set with Candida krusei ATCC 6258 (24h) it was 125 µM (≈ 41.5 µg/mL); with Candida krusei ATCC 6258 (48h), more than 125 µM; in data set [3] (setting [8]), 62.5 µM (≈ 20.8 µg/mL); in [3] (setting [9]), 15.6 µM (≈ 5.19 µg/mL). Further, the MIC with M. kansasii CIT11/06 was more than 300 µg/mL; in the data set with M. absessus CIT21/06 it was more than 300 µg/mL; in data set [4] (24h), 125 µM (≈ 41.5 µg/mL); in [4] (48h), more than 125 µM; with M. smegmatis MC2155, 150 µg/mL (≈ 452 µM); in data set [6] (24h), 125 µM (≈ 41.5 µg/mL). The MIC was 125 µM (≈ 41.5 µg/mL) in [6] (48h); 125 µM (≈ 41.5 µg/mL) in [7] (24h); more than 125 µM in [7] (48h); 125 µM (≈ 41.5 µg/mL) with Candida glabrata 20/I (24h); more than 125 µM in the data set with Candida glabrata 20/I (48h); 125 µM (≈ 41.5 µg/mL) in the data set with Candida tropicalis 156 (24h). The MIC against Candida tropicalis 156 (48h) was more than 125 µM; in [1], more than 300 µg/mL. In data set [5], the 50% inhibitory concentration (IC50) turned out to be 660 µM.

`O=S(=O)(NCCCCc1ccccc1)c1ccc(O)c2ncccc12` [Compound 7, 8-Hydroxyquinoline-5-sulfonic acid (4-phenylbutyl)amide] yielded a log k in data set [2] of 0.3902. For the same molecule, the MIC (in the data set with Absidia corymbifera 272 (24h); in the data set with Absidia corymbifera 272 (48h); in the data set with Candida krusei ATCC 6258 (24h); against Candida krusei ATCC 6258 (48h); in data set [3] (setting [8]); in data set [3] (setting [9])) was more than 125 µM each time. Besides, the MIC in [4] (24h), in [4] (48h), in [6] (24h), in data set [6] (48h), in data set [7] (24h) and in [7] (48h) was more than 125 µM each time. The MIC against Candida glabrata 20/I (24h), against Candida glabrata 20/I (48h), against Candida tropicalis 156 (24h) and with Candida tropicalis 156 (48h) was more than 125 µM in each case. Further, the IC50 in data set [5] was 616 µM.

By IC50 is commonly meant the concentration that inhibits the measured activity by half.
